From patent US20210059977A1, “COMBINATION THERAPIES FOR THE TREATMENT OF AMYOTROPHIC LATERAL SCLEROSIS AND RELATED DISORDERS” (The General Hospital Corporation, priority 2018, published 2021)

Tests used:
[1] = test system: pro-inflammatory cytokines and chemokines in spinal cord; assay: Meso Scale Discovery multi-spot cytokine assay, spinal cord; format: in vivo, mice; conditions: TgSOD1-Cromolyn vs TgSOD1-Vehicle; p=0.0273
Procedure: Spinal cord frozen tissue was homogenized in ice-cold RIPA buffer (Thermo Fisher Scientific, #8990) supplemented with protease inhibitor cocktail (Thermo Fisher Scientific, #78430). Samples were centrifuged at 45,000 g for 30 minutes at 4° C. using an Optima TL ultracentrifuge and a TLA 120.2 rotor (Beckman Coulter). Expression levels of 10 pro-inflammatory cytokines and chemokines were assessed in the supernatants derived from spinal cord tissue or in the plasma, using an electrochemiluminescence-based multi-array method and MESO Quickplex SQ 120 system (MSD, Rockville, Md., USA). The 96-well V-PLEX Proinflammatory Mouse 1 Kit (Meso Scale Discovery, #K15048D) was used to measure simultaneously IFN-γ, IL-1β, IL-2, IL-4, IL-5, IL-6, CXCL1/KC/GRO, IL-10, IL-12, p70, and TNFα, following the manufacturer's instructions. Briefly, samples were diluted in the calibrator and added to the plate coated with an array of cytokine capture antibodies. […] The plate was washed with the wash buffer and the 2× Read Buffer T was added. The signal was immediately measured on a MESO QuickPlex SQ 120 instrument and was analyzed using the DISCOVERY WORKBENCH 4.0 software (Meso Scale Diagnostics, LLC., Rockville, Md., USA). Protein concentrations in the supernatants or the plasma samples were measured using the Pierce BCA protein assay kit (Thermo Scientific). […]

[2] = target: G-protein-coupled receptor 35 (GPR35) (Homo sapiens, UniProt Q9HC97); conditions: cited from earlier work
Sequence of G-protein-coupled receptor 35 (GPR35) (Q9HC97 whole entry, species assumed): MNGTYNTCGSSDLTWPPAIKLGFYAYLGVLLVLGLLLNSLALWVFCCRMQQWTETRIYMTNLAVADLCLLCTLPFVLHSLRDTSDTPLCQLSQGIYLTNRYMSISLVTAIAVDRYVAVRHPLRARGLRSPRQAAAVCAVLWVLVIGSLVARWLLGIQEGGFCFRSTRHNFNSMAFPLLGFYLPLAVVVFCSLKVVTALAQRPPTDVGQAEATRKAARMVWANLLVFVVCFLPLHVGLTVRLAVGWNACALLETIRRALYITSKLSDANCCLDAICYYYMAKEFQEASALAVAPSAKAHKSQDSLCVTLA

SOD1^G93A mouse model [3] = assay: Neurological scoring (ALS TDI criteria); format: in vivo, mice; conditions: 6.3 mg/kg i.p.
Procedure: (§1) Beginning at P50, weight and neurological score (using the ALS TDI criteria) (Hatzipetros, T., et al. (2015). “A Quick Phenotypic Neurological Scoring System for Evaluating Disease Progression in the SOD1-G93A Mouse Model of ALS.” J Vis Exp(104); Leitner M., et. al. (2009). “Working with ALS mice: Guidelines for preclinical testing & colony management.” The Jackson Laboratory) were recorded for each mouse every 5 days until death or euthanasia. ALS TDI criteria are as follows: • Score of 0: Full extension of hind legs away from lateral midline when mouse is suspended by its tail, and mouse can hold this for two seconds, suspended two to three times. • Score of 1: Collapse or partial collapse of leg extension towards lateral midline (weakness) or trembling of hind legs during tail suspension. • Score of 2: Toes curl under at least twice during walking of 12 inches, or any part of foot is dragging along cage bottom/table. • Score of 3: Rigid paralysis or minimal joint movement, foot not being used for generating forward motion. • Score of 4: Mouse cannot right itself within 15 seconds after being placed on either side. *Mice were euthanized upon obtaining a score of 4.
(§2) 149 male and female age- and litter-matched transgenic (Tg) SOD1^G93A and wild-type (Wt) SOD1^G93A mice were used with the following breakdown: Females (19 WtSOD1-Vehicle, 17 WtSOD1-Cromolyn, 19 TgSOD1-Vehicle, and 17 TgSOD1-Cromolyn) and Males (18 WtSOD1-Vehicle, 21 WtSOD1-Cromolyn, 21 TgSOD1-Vehicle, 17 TgSOD1-Cromolyn).

[4] = test system: pro-inflammatory cytokines and chemokines in plasma; assay: Meso Scale Discovery multi-spot cytokine assay, plasma; format: in vivo, mice
Procedure: Spinal cord frozen tissue was homogenized in ice-cold RIPA buffer (Thermo Fisher Scientific, #8990) supplemented with protease inhibitor cocktail (Thermo Fisher Scientific, #78430). Samples were centrifuged at 45,000 g for 30 minutes at 4° C. using an Optima TL ultracentrifuge and a TLA 120.2 rotor (Beckman Coulter). Expression levels of 10 pro-inflammatory cytokines and chemokines were assessed in the supernatants derived from spinal cord tissue or in the plasma, using an electrochemiluminescence-based multi-array method and MESO Quickplex SQ 120 system (MSD, Rockville, Md., USA). The 96-well V-PLEX Proinflammatory Mouse 1 Kit (Meso Scale Discovery, #K15048D) was used to measure simultaneously IFN-γ, IL-1β, IL-2, IL-4, IL-5, IL-6, CXCL1/KC/GRO, IL-10, IL-12, p70, and TNFα, following the manufacturer's instructions. Briefly, samples were diluted in the calibrator and added to the plate coated with an array of cytokine capture antibodies. Samples were incubated in the plate for 2 hours with shaking at room temperature, followed by washes with the wash buffer provided in the kit. The detection antibody solution was added to each well and the plate was incubated for 2 hours. The plate was washed with the wash buffer and the 2× Read Buffer T was added. The signal was immediately measured on a MESO QuickPlex SQ 120 instrument and was analyzed using the DISCOVERY WORKBENCH 4.0 software (Meso Scale Diagnostics, LLC., Rockville, Md., USA). Protein concentrations in the supernatants or the plasma samples were measured using the Pierce BCA protein assay kit (Thermo Scientific). Values in the graphs represent levels of cytokines normalized to the corresponding protein concentrations. […] Females (19 WtSOD1-Vehicle, 17 WtSOD1-Cromolyn, 19 TgSOD1-Vehicle, and 17 TgSOD1-Cromolyn) and Males (18 WtSOD1-Vehicle, 21 WtSOD1-Cromolyn, 21 TgSOD1-Vehicle, 17 TgSOD1-Cromolyn). […] The same pro-inflammatory panel from Meso Scale Discovery was used to assess the levels of cytokines and chemokines in the plasma of a subset of mice (Females: 13 WtSOD1-Vehicle, 15 WtSOD1-Cromolyn, 6 TgSOD1-Vehicle, and 6 TgSOD1-Cromolyn; and Males: 14 WtSOD1-Vehicle, 10 WtSOD1-Cromolyn, 6 TgSOD1-Vehicle, 3 TgSOD1-Cromolyn). We were able to measure 7 of the 10 pro-inflammatory cytokines in plasma which included IL-1β, IL-2, IL-5, IL-6, CXCL1, IL-10, and TNFα.

SOD1^G93A mouse model [5] = assay: Age at paresis onset; format: in vivo, mice
Procedure: as §1, §2

SMILES: O=C(O)c1cc(=O)c2c(OCC(O)COc3cccc4oc(C(=O)O)cc(=O)c34)cccc2o1 [cromolyn, cromolyn sodium]
- CXCL1 levels in spinal cord [1]: significant decrease
- TNFα levels in spinal cord [1]: significant decrease
- agonism of GPR35 [2]: potent agonist
- neurological score (SOD1^G93A mouse model [3]; TgSOD1-Cromolyn vs TgSOD1-Vehicle, all mice, P90, P100, P110, P130, P140): significantly delayed disease onset and progression
- neurological score (SOD1^G93A mouse model [3]; female mice, P90, P100, P120, P130, P140): significant increase in neurological score in the female TgSOD1-Vehicle treated group compared to TgSOD1-Cromolyn group
- neurological score (SOD1^G93A mouse model [3]; male mice, P90, P100, P110): significant increase in neurological score in male TgSOD1-Vehicle treated group compared to TgSOD1-Cromolyn group
- IL-10 levels in plasma ([4]; TgSOD1-Cromolyn vs TgSOD1-Vehicle, p=0.0095): significantly decreased
- IL-2 levels in plasma ([4]; TgSOD1-Cromolyn vs TgSOD1-Vehicle, p=0.0211): significantly decreased
- IL-6 levels in plasma ([4]; TgSOD1-Cromolyn vs TgSOD1-Vehicle, p=0.0273): significantly decreased
- TNFα levels in plasma ([4]; TgSOD1-Cromolyn vs TgSOD1-Vehicle, p=0.110): trend towards a decrease
- IL-1β levels in plasma ([4]; between groups): no statistically significant difference
- IL-5 levels in plasma ([4]; between groups): no statistically significant difference
- median age of onset (age at paresis onset) (SOD1^G93A mouse model [5]; TgSOD1-Cromolyn group, all mice, 6.3 mg/kg i.p., vehicle group 99 days): 107 days
- onset of motor symptoms as measured by age at paresis onset (SOD1^G93A mouse model [5]; all TgSOD1 mice, Mantel-Cox test, p<0.0001): significant effect of cromolyn treatment on the onset of motor symptoms
- onset of motor symptoms (SOD1^G93A mouse model [5]; female mice, Mantel-Cox test, p=0.0009): significant delay in the onset of motor symptoms
- onset of motor symptoms (SOD1^G93A mouse model [5]; male mice, Mantel-Cox test, p=0.0193): significant delay in the onset of motor symptoms
